# pIC50, pKi: −log10 of the molar value. Active and inactive are the calls of the source. No cut-off for these calls is given here.
# Tests used:
# [1] = molecular target: Histone deacetylase 3 (Homo sapiens, UniProt O15379); assay: Inhibition of recombinant HDAC3 (unknown origin) using Boc-Lys(acetyl)-AMC as substrate preincubated for 1 hr followed by substrate addition and measured after 2 hrs by fluorescence based microplate reader analysis
# [2] = system: NCM460; assay: Cytotoxicity against human NCM460 cells assessed as reduction in cell viability at 100 uM measured after 48 hrs by spectrophotometric analysis; assay type: toxicity, cell-based; settings: ncm460, 48 h
# [3] = molecular target: Histone deacetylase 4 (Homo sapiens, UniProt P56524); assay: Inhibition of recombinant HDAC4 (unknown origin) using Boc-Lys (trifluoroacetyl) AMC as substrate preincubated for 1 hr followed by substrate addition and measured after 2 hrs by fluorescence based microplate reader analysis
# Chain of Histone deacetylase 4 (P56524 whole entry): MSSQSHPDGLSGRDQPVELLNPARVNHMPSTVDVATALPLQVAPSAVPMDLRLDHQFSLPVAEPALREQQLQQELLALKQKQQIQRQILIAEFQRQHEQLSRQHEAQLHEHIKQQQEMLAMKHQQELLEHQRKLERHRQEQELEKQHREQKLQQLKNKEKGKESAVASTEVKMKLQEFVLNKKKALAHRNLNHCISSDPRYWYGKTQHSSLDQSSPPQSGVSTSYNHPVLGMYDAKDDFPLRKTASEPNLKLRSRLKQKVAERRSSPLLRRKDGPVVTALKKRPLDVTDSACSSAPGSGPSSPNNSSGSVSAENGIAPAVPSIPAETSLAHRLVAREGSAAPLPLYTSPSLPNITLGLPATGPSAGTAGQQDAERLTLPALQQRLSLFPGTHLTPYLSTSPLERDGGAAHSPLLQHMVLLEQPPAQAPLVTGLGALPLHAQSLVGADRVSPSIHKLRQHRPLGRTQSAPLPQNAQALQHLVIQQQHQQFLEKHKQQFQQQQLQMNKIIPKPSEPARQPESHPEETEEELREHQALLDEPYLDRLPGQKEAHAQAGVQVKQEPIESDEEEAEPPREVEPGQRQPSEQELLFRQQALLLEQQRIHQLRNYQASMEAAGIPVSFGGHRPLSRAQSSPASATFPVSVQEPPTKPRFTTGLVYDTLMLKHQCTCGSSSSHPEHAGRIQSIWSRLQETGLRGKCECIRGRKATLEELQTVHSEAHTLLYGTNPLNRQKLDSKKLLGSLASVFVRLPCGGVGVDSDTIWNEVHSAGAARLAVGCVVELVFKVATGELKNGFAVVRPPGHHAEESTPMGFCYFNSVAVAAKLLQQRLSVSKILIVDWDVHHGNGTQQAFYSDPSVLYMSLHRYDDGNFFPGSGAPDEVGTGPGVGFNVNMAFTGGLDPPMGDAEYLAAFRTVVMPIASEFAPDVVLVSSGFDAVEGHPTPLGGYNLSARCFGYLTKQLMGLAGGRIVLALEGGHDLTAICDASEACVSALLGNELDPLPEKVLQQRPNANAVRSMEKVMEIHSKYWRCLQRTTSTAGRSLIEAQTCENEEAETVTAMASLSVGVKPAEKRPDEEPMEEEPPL
# [4] = system: J774.A1; assay: Antiinflammatory activity against LPS primed mouse J774.A1 cells assessed suppression of LPS/ATP induced IL-beta release preincubated for 30 mins followed by ATP stimulation measured after 30 mins by ELISA; assay type: functional, cell-based
# [5] = system: HEK293; assay: Cytotoxicity against human HEK293 cells assessed as reduction in cell viability at 100 uM measured after 48 hrs by spectrophotometric analysis; assay type: toxicity, cell-based; settings: hek293, 48 h
# [6] = molecular target: T1, Protein deacetylase HDAC6 (Homo sapiens, UniProt Q9UBN7); assay: Binding affinity to recombinant HDAC6 (unknown origin) assessed as inhibition constant using Boc-Lys(acetyl)-AMC as substrate preincubated for 1 hr followed by substrate addition and measured after 2 hrs by fluorescence based microplate reader analysis
# T1 sequence (Q9UBN7 whole entry): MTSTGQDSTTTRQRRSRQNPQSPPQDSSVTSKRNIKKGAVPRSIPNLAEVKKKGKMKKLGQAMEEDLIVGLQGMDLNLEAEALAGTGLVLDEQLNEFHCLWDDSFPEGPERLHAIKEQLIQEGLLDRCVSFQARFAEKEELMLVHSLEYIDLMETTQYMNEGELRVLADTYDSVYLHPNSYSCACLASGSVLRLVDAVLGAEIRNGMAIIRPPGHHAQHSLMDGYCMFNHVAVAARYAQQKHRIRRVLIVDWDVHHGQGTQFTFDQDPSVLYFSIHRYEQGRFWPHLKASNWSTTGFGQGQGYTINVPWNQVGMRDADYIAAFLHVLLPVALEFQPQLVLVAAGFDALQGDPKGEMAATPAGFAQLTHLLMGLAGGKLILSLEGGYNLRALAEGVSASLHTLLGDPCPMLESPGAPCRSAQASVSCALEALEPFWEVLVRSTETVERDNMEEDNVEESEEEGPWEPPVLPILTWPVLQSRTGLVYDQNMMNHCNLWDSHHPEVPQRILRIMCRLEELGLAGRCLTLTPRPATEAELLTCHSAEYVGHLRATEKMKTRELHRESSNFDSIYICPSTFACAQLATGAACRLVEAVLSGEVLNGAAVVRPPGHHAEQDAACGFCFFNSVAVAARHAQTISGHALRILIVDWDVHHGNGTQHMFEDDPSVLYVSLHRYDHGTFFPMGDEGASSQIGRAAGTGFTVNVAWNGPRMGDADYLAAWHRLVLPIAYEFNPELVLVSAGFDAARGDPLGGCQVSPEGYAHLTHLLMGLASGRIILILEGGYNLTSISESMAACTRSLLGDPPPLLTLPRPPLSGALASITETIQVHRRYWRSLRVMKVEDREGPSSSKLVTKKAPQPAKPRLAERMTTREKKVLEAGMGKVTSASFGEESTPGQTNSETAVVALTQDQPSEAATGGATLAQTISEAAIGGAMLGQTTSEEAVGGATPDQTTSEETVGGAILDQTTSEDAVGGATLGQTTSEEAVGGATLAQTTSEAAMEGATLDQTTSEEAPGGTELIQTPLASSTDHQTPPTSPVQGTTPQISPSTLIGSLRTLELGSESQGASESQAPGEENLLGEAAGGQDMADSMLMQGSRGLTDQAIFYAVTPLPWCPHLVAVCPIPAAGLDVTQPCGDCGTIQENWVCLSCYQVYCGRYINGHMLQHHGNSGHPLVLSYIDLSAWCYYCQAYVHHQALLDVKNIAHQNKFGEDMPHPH
# [7] = Half life in CD-1 mouse at 5 mg/kg, iv measured after 0.083 to 24 hrs by LC-MS/MS analysis; assay type: ADME, organism-based; settings: in vivo, time 0.083-24 hrs
# [8] = Brain concentration in CD-1 mouse at 20 mg/kg measured after 4 hrs by LC-MS/MS analysis; assay type: ADME, organism-based; settings: read-out: Ct
# [9] = molecular target: T2, Protein deacetylase HDAC6 (Homo sapiens) (UniProt Q9UBN7); assay: Inhibition of HDAC6 in human MV4-11 cells assessed as decrease in hyper acetylation of histone alpha tubulin preincubated for 6 hrs followed by compound washout measured after 1 hr by western blot analysis; assay type: cell-based
# T2 sequence (whole entry): T1 sequence (Q9UBN7 whole entry)
# [10] = molecular target: T1, Protein deacetylase HDAC6; assay: Inhibition of recombinant HDAC6 (unknown origin) using Boc-Lys(acetyl)-AMC as substrate preincubated for 60 mins followed by substrate addition and measured after 2 hrs by fluorescence based microplate reader analysis
# [11] = Plasma concentration in CD-1 mouse at 20 mg/kg measured after 0.5 hrs by LC-MS/MS analysis; assay type: ADME, organism-based
# [12] = molecular target: T3, Histone deacetylase 8 (Homo sapiens, UniProt Q9BY41); assay: Inhibition of recombinant HDAC8 (unknown origin) using Boc-Lys (trifluoroacetyl) AMC as substrate preincubated for 1 hr followed by substrate addition and measured after 2 hrs by fluorescence based microplate reader analysis
# T3 sequence (Q9BY41 whole entry): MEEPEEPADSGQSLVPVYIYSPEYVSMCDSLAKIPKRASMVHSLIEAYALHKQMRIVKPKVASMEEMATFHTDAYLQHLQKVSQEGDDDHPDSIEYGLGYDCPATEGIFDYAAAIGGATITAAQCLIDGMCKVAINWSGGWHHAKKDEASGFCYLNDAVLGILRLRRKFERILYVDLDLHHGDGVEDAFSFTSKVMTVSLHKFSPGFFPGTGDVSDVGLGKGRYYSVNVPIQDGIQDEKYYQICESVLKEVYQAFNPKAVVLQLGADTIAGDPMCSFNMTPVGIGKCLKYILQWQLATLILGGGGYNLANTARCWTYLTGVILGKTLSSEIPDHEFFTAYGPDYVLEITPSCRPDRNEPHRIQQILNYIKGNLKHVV
# [13] = molecular target: Histone deacetylase 1 (Homo sapiens, UniProt Q13547); assay: Binding affinity to recombinant HDAC1 (unknown origin) assessed as inhibition constant using Boc-Lys(acetyl)-AMC as substrate preincubated for 1 hr followed by substrate addition and measured after 2 hrs by fluorescence based microplate reader analysis
# Chain of Histone deacetylase 1 (Q13547 whole entry): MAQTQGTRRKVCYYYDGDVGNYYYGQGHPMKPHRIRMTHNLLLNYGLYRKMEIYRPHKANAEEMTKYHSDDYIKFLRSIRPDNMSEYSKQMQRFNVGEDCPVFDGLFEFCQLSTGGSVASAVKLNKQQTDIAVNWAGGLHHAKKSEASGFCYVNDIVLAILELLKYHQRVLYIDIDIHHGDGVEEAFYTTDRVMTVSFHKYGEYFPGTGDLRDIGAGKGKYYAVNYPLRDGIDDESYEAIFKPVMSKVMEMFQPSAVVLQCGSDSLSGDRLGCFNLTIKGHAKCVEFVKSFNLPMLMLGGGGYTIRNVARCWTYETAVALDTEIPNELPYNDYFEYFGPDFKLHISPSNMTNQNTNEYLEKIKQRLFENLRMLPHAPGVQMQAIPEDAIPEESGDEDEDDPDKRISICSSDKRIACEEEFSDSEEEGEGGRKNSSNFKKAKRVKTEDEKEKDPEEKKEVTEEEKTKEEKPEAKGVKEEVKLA
# [14] = molecular target: T1, Protein deacetylase HDAC6; assay: Inhibition of recombinant HDAC6 (unknown origin) using Boc-Lys(acetyl)-AMC as substrate preincubated for 0 min followed by substrate addition and measured after 2 hrs by fluorescence based microplate reader analysis
# [15] = molecular target: T1, Protein deacetylase HDAC6; assay: Inhibition of recombinant HDAC6 (unknown origin) using Boc-Lys(acetyl)-AMC as substrate preincubated for 30 mins followed by substrate addition and measured after 2 hrs by fluorescence based microplate reader analysis
# [16] = molecular target: Histone deacetylase 2 (Homo sapiens, UniProt Q92769); assay: Inhibition of recombinant HDAC2 (unknown origin) using Boc-Lys(acetyl)-AMC as substrate preincubated for 1 hr followed by substrate addition and measured after 2 hrs by fluorescence based microplate reader analysis
# Chain of Histone deacetylase 2 (Q92769 whole entry): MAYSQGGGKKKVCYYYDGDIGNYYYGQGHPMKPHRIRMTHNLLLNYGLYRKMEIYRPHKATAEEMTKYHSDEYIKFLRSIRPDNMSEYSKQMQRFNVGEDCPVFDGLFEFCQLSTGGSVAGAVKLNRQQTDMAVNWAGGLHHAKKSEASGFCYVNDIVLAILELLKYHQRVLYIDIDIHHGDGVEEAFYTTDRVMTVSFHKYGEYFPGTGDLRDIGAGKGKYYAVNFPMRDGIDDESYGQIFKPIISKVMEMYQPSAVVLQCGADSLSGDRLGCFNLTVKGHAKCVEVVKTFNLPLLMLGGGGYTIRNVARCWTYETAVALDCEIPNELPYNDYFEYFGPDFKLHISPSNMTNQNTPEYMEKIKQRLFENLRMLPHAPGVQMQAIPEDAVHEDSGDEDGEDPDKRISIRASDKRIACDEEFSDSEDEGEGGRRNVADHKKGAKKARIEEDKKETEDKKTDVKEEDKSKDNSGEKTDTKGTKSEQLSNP
# Chain of Histone deacetylase 3 (O15379 whole entry): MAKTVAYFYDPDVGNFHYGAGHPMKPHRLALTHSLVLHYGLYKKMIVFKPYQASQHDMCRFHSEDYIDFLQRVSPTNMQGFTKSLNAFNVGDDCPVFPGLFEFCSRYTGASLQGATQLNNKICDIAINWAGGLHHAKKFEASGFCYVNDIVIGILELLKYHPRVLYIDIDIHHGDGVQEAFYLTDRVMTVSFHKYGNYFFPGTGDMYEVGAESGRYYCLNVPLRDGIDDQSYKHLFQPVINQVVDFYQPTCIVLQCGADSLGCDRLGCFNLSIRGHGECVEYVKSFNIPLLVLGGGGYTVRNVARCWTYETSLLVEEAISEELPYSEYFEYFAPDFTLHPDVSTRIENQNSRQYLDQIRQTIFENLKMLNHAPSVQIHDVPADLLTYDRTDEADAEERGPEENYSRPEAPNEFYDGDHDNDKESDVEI
smiles,measurement,setting,value
CCNNC(=O)c1ccc(CN2c3ccccc3C=Cc3ccncc32)cc1,pIC50,[1],5.99
same,Activity,[2],Non-Toxic
same,pIC50,[3],< 5.30
same,pIC50,[4],5.58
same,Activity,[5],Non-Toxic
same,pKi,[6],8.52
same,half-life,[7],7.95 h
same,concentration at 4 h,[8],245 ng/mL
same,inhibition,[9],Active
same,pIC50,[10],7.49
same,concentration at 0.5 h,[11],7740 ng/mL
same,pIC50,[12],< 5.30
same,pKi,[13],6.06
same,pIC50,[14],6.34
same,pIC50,[15],7.50
same,pIC50,[16],5.69
